One test has as its system CD8+ T cells. Kind of test: In vitro immunogenicity: T-cell priming with aAPCs loaded with peptide/MHC complexes and anti-CD28 antibody, pMHC multimer readout (Tables 19A, 19B). The test is classed as cell-based, human. As to conditions: for Wells positive [%]: in vitro immunogenicity of HLA class I peptides, pMHC multimer readout after priming of CD8+ T cells; for Share of positive wells (percent class): in vitro immunogenicity, healthy donors, three stimulation cycles. As for the experimental part: In an aspect, the peptides are pre-screened for immunogenicity before being included in the warehouse. By way of example, and not limitation, the immunogenicity of the peptides included in the warehouse is determined by a method comprising in vitro T-cell priming through repeated stimulations of CD8+ T cells from healthy donors with artificial antigen presenting cells loaded with peptide/MHC complexes and anti-CD28 antibody.
In order to obtain information regarding the immunogenicity of the TUMAPs of the present invention, the inventors performed investigations using an in vitro T-cell priming assay based on repeated stimulations of CD8+ T cells with artificial antigen presenting cells (aAPCs) loaded with peptide/MHC complexes and anti-CD28 antibody.
In order to perform in vitro stimulations by artificial antigen presenting cells loaded with peptide-MHC complex (pMHC) and anti-CD28 antibody, the inventors first isolated CD8+ T cells from fresh HLA-A*02 leukapheresis products via positive selection using CD8 microbeads (Miltenyi Biotec, Bergisch-Gladbach, Germany) of healthy donors obtained from the University clinics Mannheim, Germany, after informed consent.
PBMCs and isolated CD8+ lymphocytes were incubated in T-cell medium (TCM) until use consisting of RPMI-Glutamax (Invitrogen, Karlsruhe, Germany) supplemented with 10% heat inactivated human AB serum (PAN-Biotech, Aidenbach, Germany), 100 U/ml Penicillin/100 μg/ml Streptomycin (Cambrex, Cologne, Germany), 1 mM sodium pyruvate (CC Pro, Oberdorla, Germany), 20 μg/ml Gentamycin (Cambrex). 2.5 ng/ml IL7 (PromoCell, Heidelberg, Germany) and 10 U/ml IL-2 (Novartis Pharma, Nurnberg, Germany) were also added to the TCM at this step.
Generation of pMHC/anti-CD28 coated beads, T-cell stimulations and readout was performed in a highly defined in vitro system using four different pMHC molecules per stimulation condition and 8 different pMHC molecules per readout condition.
The purified co-stimulatory mouse IgG2a anti human CD28 Ab 9.3 (Jung et al., 1987) was chemically biotinylated using Sulfo-N-hydroxysuccinimidobiotin as recommended by the manufacturer (Perbio, Bonn, Germany). Beads used were 5.6 μm diameter streptavidin coated polystyrene particles (Bangs Laboratories, Illinois, USA).
pMHC used for positive and negative control stimulations were A*0201/MLA-001 (peptide […] (SEQ ID NO. 303) from modified Melan-A/MART-1) and A*0201/DDX5-001 ([…] from DDX5, SEQ ID NO. 304), respectively.
800.000 beads/200 μl were coated in 96-well plates in the presence of 4×12.5 ng different biotin-pMHC, washed and 600 ng biotin anti-CD28 were added subsequently in a volume of 200 μl. Stimulations were initiated in 96-well plates by co-incubating […] CD8+ T cells with 2×10^5 washed coated beads in 200 μl TCM supplemented with 5 ng/ml IL-12 (PromoCell) for 3 days at 37° C. Half of the medium was then exchanged by fresh TCM supplemented with 80 U/ml IL-2 and incubating was continued for 4 days at 37° C. This stimulation cycle was performed for a total of three times. For the pMHC multimer readout using 8 different pMHC molecules per condition, a two-dimensional combinatorial coding approach was used as previously described (Andersen et al., 2012) with minor modifications encompassing coupling to 5 different fluorochromes. Finally, multimeric analyses were performed by staining the cells with Live/dead near IR dye (Invitrogen, Karlsruhe, Germany), CD8-FITC antibody clone SK1 (BD, Heidelberg, Germany) and fluorescent pMHC multimers. For analysis, a BD LSRII SORP cytometer equipped with appropriate lasers and filters was used. Peptide specific cells were calculated as percentage of total CD8+ cells. Evaluation of multimeric analysis was done using the FlowJo software (Tree Star, Oreg., USA). In vitro priming of specific multimer+ CD8+ lymphocytes was detected by comparing to negative control stimulations.

The subject of the next test is HLA-A*02. Kind of test: MHC binding assay, UV-ligand exchange with β2m ELISA, HLA-A*02 (Table 20). Details: species or system human. As to conditions: binding to HLA-A*02 ranged by peptide exchange yield (UV-ligand exchange, β2m ELISA). The method in brief:
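Peptide–MHC complexes made by UV-ligand exchange of a UV-cleavable peptide, diluted 100-fold and captured on streptavidin plates. Stabilized complexes detected by HRP anti-β2m ELISA (1 h, 37° C, A450). Exchange yield derived against refolded HLA-A*02:01/MLA-001 monomer standards (15-500 ng/ml).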
(In general: ELISA stands for enzyme-linked immunosorbent assay.)

For the next test, the system named is HLA-A*24. Kind of test: MHC binding assay, UV-ligand exchange with β2m ELISA, HLA-A*24 (Table 21). The note with it: binding to HLA-A*24 ranged by peptide exchange yield (UV-ligand exchange, β2m ELISA). Also on record: species or system human. The source says:
Candidate peptides for T cell based therapies according to the present invention were further tested for their MHC binding capacity (affinity). The individual peptide-MHC complexes were produced by UV-ligand exchange, where a UV-sensitive peptide is cleaved upon UV-irradiation, and exchanged with the peptide of interest as analyzed. Only peptide candidates that can effectively bind and stabilize the peptide-receptive MHC molecules prevent dissociation of the MHC complexes. To determine the yield of the exchange reaction, an ELISA was performed based on the detection of the light chain ((β2m) of stabilized MHC complexes. The assay was performed as generally described in Rodenko et al. (Rodenko et al., 2006).
96 well MAXISorp plates (NUNC) were coated over night with 2 ug/ml streptavidin in PBS at room temperature, washed 4× and blocked for 1 h at 37° C. in 2% BSA containing blocking buffer. Refolded HLA-A*02:01/MLA-001 monomers served as standards, covering the range of 15-500 ng/ml. Peptide-MHC monomers of the UV-exchange reaction were diluted 100 fold in blocking buffer. Samples were incubated for 1 h at 37° C., washed four times, incubated with 2 ug/ml HRP conjugated anti-β2m for 1 h at 37° C., washed again and detected with TMB solution that is stopped with […]. Absorption was measured at 450 nm. Candidate peptides that show a high exchange yield (preferably higher than 50%, most preferred higher than 75%) are generally preferred for a generation and production of antibodies or fragments thereof, and/or T cell receptors or fragments thereof, as they show sufficient avidity to the MHC molecules and prevent dissociation of the MHC complexes.

As for “1 (LLYPEPWSV; listed as Homo sapiens) [compound 1]”, the “Wells positive [%]” value with CD8+ T cells was “++ (20%-49% = ++)”. In addition, the Peptide exchange result in the test on HLA-A*02 was “++++ (≧75% = ++++)”. In the case of “4 (KLMPGTYTL; listed as Homo sapiens) [compound 4]”, the “Wells positive [%]” value in the test with CD8+ T cells was “+ (<20% = +)”. Also, the Peptide exchange entry with HLA-A*02 was “++++ (≧75% = ++++)”. For “5 (GIVAHIQEV; listed as Homo sapiens) [compound 5]” the same measures were “+ (<20% = +)” and “+++ (50%-75% = +++)”. Consider “6 (ALFDSLRHV; listed as Homo sapiens) [compound 6]”, for which the “Wells positive [%]” value in the test on CD8+ T cells was “++ (20%-49% = ++)”. Besides, in the test on HLA-A*02, the Peptide exchange result is listed as “+++ (50%-75% = +++)”. “7 (ILDHEVPSL; listed as Homo sapiens) [compound 7]”: the “Wells positive [%]” value with CD8+ T cells is “++ (20%-49% = ++)”. Moreover, the Peptide exchange result with HLA-A*02 is “+++ (50%-75% = +++)”.

For “11 (ALSPSYLTV; listed as Homo sapiens) [compound 11]”, in the test with CD8+ T cells, the “Wells positive [%]” value is recorded as “++ (20%-49% = ++)”. The Peptide exchange entry in the test with HLA-A*02 was “+++ (50%-75% = +++)”.

On to “12 (GLLPLLHRA; listed as Homo sapiens) [compound 12]”, for which the “Wells positive [%]” value with CD8+ T cells is given as “++++ (≧70% = ++++)”. Also, the Peptide exchange entry with HLA-A*02 is reported as “++++ (≧75% = ++++)”. Turning to “14 (ILAKDLFEI; listed as Homo sapiens) [compound 14]”, the “Wells positive [%]” value in the test with CD8+ T cells was “++ (20%-49% = ++)”. The Peptide exchange result with HLA-A*02 is given as “++++ (≧75% = ++++)”. “18 (ILLDLTDNRL; listed as Homo sapiens) [compound 18]”: the “Wells positive [%]” value in the test on CD8+ T cells is recorded as “+ (<20% = +)”. The Peptide exchange result in the test on HLA-A*02 is listed as “+++ (50%-75% = +++)”. Turning to “20 (GLSQITNQL; listed as Homo sapiens) [compound 20]”, the “Wells positive [%]” value in the test with CD8+ T cells is on record as “++ (20%-49% = ++)”. In addition, the Peptide exchange result in the test on HLA-A*02 was “+++ (50%-75% = +++)”. For “23 (SLFSDEFKV; listed as Homo sapiens) [compound 23]”, the “Wells positive [%]” value with CD8+ T cells is listed as “++++ (≧70% = ++++)”. Besides, in the test on HLA-A*02, the Peptide exchange result is reported as “+++ (50%-75% = +++)”.

On to “271 (LYHDIFSRL; listed as Homo sapiens) [compound 271]”, for which the Peptide exchange entry in the test on HLA-A*24 was “++++ (≧75% = ++++)”.

As to “272 (QYLQDAYSF; listed as Homo sapiens) [compound 272]”, the Peptide exchange result in the test with HLA-A*24 is reported as “++++ (≧75% = ++++)”.

As to “273 (TYIKPISKL; listed as Homo sapiens) [compound 273]”, in the test with HLA-A*24, the Peptide exchange result was “+++ (50%-75% = +++)”. Regarding “274 (AYLHSHALI; listed as Homo sapiens) [compound 274]”, the Peptide exchange entry with HLA-A*24 is reported as “++++ (≧75% = ++++)”. Take “275 (EYINQGDLHEF; listed as Homo sapiens) [compound 275]”: the Peptide exchange entry with HLA-A*24 is listed as “+++ (50%-75% = +++)”.

Consider “276 (VYGFQWRHF; listed as Homo sapiens) [compound 276]”, for which the Peptide exchange result with HLA-A*24 was “++++ (≧75% = ++++)”. On the same count and under the same terms, the entry for “277 (VYQGHTALL; listed as Homo sapiens) [compound 277]” is “++++ (≧75% = ++++)”.

For the substance “278 (RYISDQLFTNF; listed as Homo sapiens) [compound 278]”, the Peptide exchange result in the test on HLA-A*24 is reported as “++++ (≧75% = ++++)”.

With “279 (TYIESASEL; listed as Homo sapiens) [compound 279]”, in the test with HLA-A*24, the Peptide exchange entry is recorded as “+++ (50%-75% = +++)”. Consider “280 (RYPDNLKHLYL; listed as Homo sapiens) [compound 280]”, for which the Peptide exchange result in the test with HLA-A*24 is “++++ (≧75% = ++++)”.

On to “282 (KFVDSTFYL; listed as Homo sapiens) [compound 282]”, for which the Peptide exchange entry in the test on HLA-A*24 was “++++ (≧75% = ++++)”. Consider “283 (TYGDAGLTYTF; listed as Homo sapiens) [compound 283]”, for which, in the test with HLA-A*24, the Peptide exchange entry is recorded as “+++ (50%-75% = +++)”.

“284 (RYLNKAFHI; listed as Homo sapiens) [compound 284]”: the Peptide exchange entry in the test with HLA-A*24 is “+++ (50%-75% = +++)”. As to “286 (RYPDNLKHL; listed as Homo sapiens) [compound 286]”, the Peptide exchange entry in the test with HLA-A*24 was “++ (20%-49% = ++)”.

Take “287 (LYITEPKTI; listed as Homo sapiens) [compound 287]”: the Peptide exchange entry in the test on HLA-A*24 was “+++ (50%-75% = +++)”. On to “288 (VYVSDIQEL; listed as Homo sapiens) [compound 288]”, for which, in the test with HLA-A*24, the Peptide exchange result is reported as “+++ (50%-75% = +++)”. On the same count and under the same terms, the entry for “289 (KYPVEWAKF; listed as Homo sapiens) [compound 289]” is “++++ (≧75% = ++++)”. Turning to “290 (KIVDFSYSV; listed as Homo sapiens) [compound 290]”, in the test with CD8+ T cells, the “Share of positive wells (percent class)” value is “++ (20%-49% = ++)”. “291 (KLDETGNSL; listed as Homo sapiens) [compound 291]”: the “Share of positive wells (percent class)” value in the test on CD8+ T cells was “+ (<20% = +)”. The same measure, in the same setting: next, “292 (GMMTAILGV; listed as Homo sapiens) [compound 292]”: “+ (<20% = +)”; “293 (FLVDGSWSI; listed as Homo sapiens) [compound 293]”: “+ (<20% = +)”; “295 (YYPGVILGF; listed as Homo sapiens) [compound 295]”: “++ (20%-49% = ++)”. For the substance “296 (TYVDSSHTI; listed as Homo sapiens) [compound 296]”, the “Share of positive wells (percent class)” value in the test on CD8+ T cells is reported as “+ (<20% = +)”. Still for that read-out and setting: next, “297 (PFLQASPHF; listed as Homo sapiens) [compound 297]”: “++ (20%-49% = ++)”. Turning to “298 (RYLEGTSCI; listed as Homo sapiens) [compound 298]”, the “Share of positive wells (percent class)” value in the test on CD8+ T cells is given as “+ (<20% = +)”. As for “300 (AYVLRLETL; listed as Homo sapiens) [compound 300]”, in the test on CD8+ T cells, the “Share of positive wells (percent class)” value is recorded as “+ (<20% = +)”.

In the case of “301 (AYKPGALTF; listed as Homo sapiens) [compound 301]”, the “Share of positive wells (percent class)” value in the test on CD8+ T cells is listed as “+ (<20% = +)”.

The values are drawn from patent publication US20170189504A1, “NOVEL PEPTIDES AND COMBINATION OF PEPTIDES FOR USE IN IMMUNOTHERAPY AGAINST VARIOUS CANCERS” (immatics biotechnologies GmbH, priority 2015, published 2017).
